Results as given in patent US9174952B2, “Substituted 3-thiazoloamino-propionic acid derivatives and their use as pharmaceuticals” (SANOFI, priority 2011, dated 2015).

target: T1, Recombinant human cathepsin A (Homo sapiens, UniProt P10619); test: Cathepsin A inhibitory activity; format: biochemical; conditions: activated recombinant human cathepsin A 833 ng/ml, Bodipy FL-labeled bradykinin substrate 2 μM, pH 5.5, room temperature
T1 construct: Recombinant human cathepsin A (residues 29-480, with a C-terminal 10-His tag); 10-His (C); purchased R&D Systems 1049-SE
T1 sequence (P10619 29-326 limits assumed): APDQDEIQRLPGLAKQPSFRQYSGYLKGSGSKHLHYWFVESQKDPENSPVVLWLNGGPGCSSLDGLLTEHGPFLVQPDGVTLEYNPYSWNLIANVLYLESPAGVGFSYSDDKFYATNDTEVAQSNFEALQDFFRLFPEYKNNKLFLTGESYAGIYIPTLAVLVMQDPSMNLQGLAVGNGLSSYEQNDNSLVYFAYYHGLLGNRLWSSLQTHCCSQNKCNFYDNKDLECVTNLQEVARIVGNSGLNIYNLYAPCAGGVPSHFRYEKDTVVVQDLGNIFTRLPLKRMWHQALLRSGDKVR
T1 sequence (P10619 327-480 limits assumed): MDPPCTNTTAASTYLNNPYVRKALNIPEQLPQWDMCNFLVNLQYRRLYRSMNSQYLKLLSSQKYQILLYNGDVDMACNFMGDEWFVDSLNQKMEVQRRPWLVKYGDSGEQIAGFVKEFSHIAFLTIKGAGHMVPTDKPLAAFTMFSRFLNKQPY
Procedure, shortened: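 Enzyme (residues 29-480, C-terminal His tag) pre-activated by cathepsin L at 37° C, then quenched with E-64. Compound preincubated 15 min at room temperature in 25 mM MES pH 5.5 with 5 mM DTT, then 2 μM Bodipy FL-bradykinin added for 15 min at 833 ng/ml enzyme. Product/substrate separated by microfluidic capillary electrophoresis; IC50 from multi-concentration inhibition.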

Row | SMILES | IC50
1 | O=C(O)C[C@H](NC(=O)c1csc(-c2cccc(Cl)c2)n1)c1ccc(Cl)cc1Cl [Example 91, (S)-3-{[2-(3-Chloro-phenyl)-thiazole-4-carbonyl]-amino}-3-(2,4-dichloro-phenyl)-propionic acid] | 1910 nM
2 | O=C(O)C[C@H](NC(=O)c1csc(-c2cccc(Cl)c2)n1)c1ccccc1F [Example 92, (S)-3-{[2-(3-Chloro-phenyl)-thiazole-4-carbonyl]-amino}-3-(2-fluoro-phenyl)-propionic acid] | 1310 nM
3 | O=C(O)C[C@H](NC(=O)c1csc(-c2cccc(Cl)c2)n1)c1cccc(F)c1 [Example 94, (S)-3-{[2-(3-Chloro-phenyl)-thiazole-4-carbonyl]-amino}-3-(3-fluoro-phenyl)-propionic acid] | 3730 nM
4 | O=C(O)C[C@H](NC(=O)c1nc(-c2ccccc2)cs1)c1cccc(Cl)c1Cl [Example 95, (S)-3-(2,3-Dichloro-phenyl)-3-[(4-phenyl-thiazole-2-carbonyl)-amino]-propionic acid] | 38 nM
5 | O=C(O)C[C@H](NC(=O)c1nc(-c2ccccc2)cs1)c1ccc(Cl)cc1Cl [Example 96, (S)-3-(2,4-Dichloro-phenyl)-3-[(4-phenyl-thiazole-2-carbonyl)-amino]-propionic acid] | 254 nM
6 | O=C(O)C[C@H](NC(=O)c1nc(-c2ccccc2)cs1)c1cccc(C(F)(F)F)c1 [Example 99, (S)-3-[(4-Phenyl-thiazole-2-carbonyl)-amino]-3-(3-trifluoromethyl-phenyl)-propionic acid] | 3310 nM
7 | O=C(O)C[C@H](NC(=O)c1csc(-c2ccc(Cl)cc2)n1)c1cccc(Cl)c1Cl [Example 100, (S)-3-{[2-(4-Chloro-phenyl)-thiazole-4-carbonyl]-amino}-3-(2,3-dichloro-phenyl)-propionic acid] | 686 nM
8 | COc1cccc([C@H](CC(=O)O)NC(=O)c2csc(-c3ccc(Cl)cc3)n2)c1OC [Example 101, (S)-3-{[2-(4-Chloro-phenyl)-thiazole-4-carbonyl]-amino}-3-(2,3-dimethoxy-phenyl)-propionic acid] | 1120 nM
9 | O=C(O)C[C@H](NC(=O)c1csc(-c2ccc(Cl)cc2)n1)c1ccc(Cl)cc1Cl [Example 102, (S)-3-{[2-(4-Chloro-phenyl)-thiazole-4-carbonyl]-amino}-3-(2,4-dichloro-phenyl)-propionic acid] | 2680 nM
10 | O=C(O)[C@@H]1CN(C(=O)c2nc(-c3ccc(C(F)(F)F)cc3)cs2)C[C@H]1c1ccccc1 [Example 103, (3S,4R)-4-Phenyl-1-[4-(4-trifluoromethyl-phenyl)-thiazole-2-carbonyl]-pyrrolidine-3-carboxylic acid] | > 10000 nM
11 | O=C(O)C[C@H](NC(=O)c1csc(-c2ccc(Cl)cc2)n1)c1cccc(F)c1 [Example 105, (S)-3-{[2-(4-Chloro-phenyl)-thiazole-4-carbonyl]-amino}-3-(3-fluoro-phenyl)-propionic acid] | 2960 nM
12 | COc1cccc([C@H](CC(=O)O)NC(=O)c2csc(-c3ccc(Cl)cc3)n2)c1 [Example 106, (S)-3-{[2-(4-Chloro-phenyl)-thiazole-4-carbonyl]-amino}-3-(3-methoxy-phenyl)-propionic acid] | 17300 nM
13 | COc1ccc([C@H](CC(=O)O)NC(=O)c2csc(-c3ccc(Cl)cc3)n2)cc1 [Example 108, (S)-3-{[2-(4-Chloro-phenyl)-thiazole-4-carbonyl]-amino}-3-(4-methoxy-phenyl)-propionic acid] | 3400 nM
14 | Cc1ccccc1-c1nc(C(=O)N[C@@H](CC(=O)O)c2ccccc2)cs1 [Example 113, (S)-3-Phenyl-3-[(2-o-tolyl-thiazole-4-carbonyl)-amino]-propionic acid] | 322 nM
15 | Cc1ccccc1-c1nc(C(=O)NCC(C(=O)O)c2ccccc2)cs1 (centres unmarked) [Example 114, 2-Phenyl-3-[(2-o-tolyl-thiazole-4-carbonyl)-amino]-propionic acid] | 7040 nM
16 | O=C(NCC(C(=O)O)c1ccccc1)c1csc(-c2ccccc2)n1 (centres unmarked) [Example 115, 2-Phenyl-3-[(2-phenyl-thiazole-4-carbonyl)-amino]-propionic acid] | 4880 nM
17 | O=C(NCC(C(=O)O)c1ccccc1)c1csc(-c2cccc(Cl)c2Cl)n1 (centres unmarked) [Example 116, 3-{[2-(2,3-Dichloro-phenyl)-thiazole-4-carbonyl]-amino}-2-phenyl-propionic acid] | 7710 nM
18 | O=C(O)CC(Cc1ccccc1)NC(=O)c1csc(-c2cccc(Cl)c2Cl)n1 (centres unmarked) [Example 117, 3-{[2-(2,3-Dichloro-phenyl)-thiazole-4-carbonyl]-amino}-4-phenyl-butyric acid] | 2750 nM
19 | O=C(NCC(C(=O)O)c1ccccc1)c1csc(-c2ccccc2Cl)n1 (centres unmarked) [Example 118, 3-{[2-(2-Chloro-phenyl)-thiazole-4-carbonyl]-amino}-2-phenyl-propionic acid] | 6040 nM
20 | O=C(O)CC(NC(=O)c1csc(-c2ccccc2Cl)n1)C1CCCCC1 (centres unmarked) [Example 119, 3-{[2-(2-Chloro-phenyl)-thiazole-4-carbonyl]-amino}-3-cyclohexyl-propionic acid] | 680 nM

Continued, values first:

Row | IC50 | SMILES
21 | 10400 nM | O=C(O)C[C@H](NC(=O)c1csc(-c2cccc(Cl)c2)n1)c1ccccc1C(F)(F)F [Example 93, (S)-3-{[2-(3-Chloro-phenyl)-thiazole-4-carbonyl]-amino}-3-(2-trifluoromethyl-phenyl)-propionic acid]
22 | 406 nM | O=C(O)C[C@H](NC(=O)c1nc(-c2ccccc2)cs1)c1ccc(C(F)(F)F)cc1 [Example 97, (S)-3-[(4-Phenyl-thiazole-2-carbonyl)-amino]-3-(4-trifluoromethyl-phenyl)-propionic acid]
23 | 660 nM | Cc1ccccc1[C@H](CC(=O)O)NC(=O)c1csc(-c2cccc(Cl)c2)n1 [Example 98, (S)-3-{[2-(3-Chloro-phenyl)-thiazole-4-carbonyl]-amino}-3-o-tolyl-propionic acid]
24 | 5390 nM | O=C(O)C[C@H](NC(=O)c1csc(-c2ccc(Cl)cc2)n1)c1ccccc1C(F)(F)F [Example 104, (S)-3-{[2-(4-Chloro-phenyl)-thiazole-4-carbonyl]-amino}-3-(2-trifluoromethyl-phenyl)-propionic acid]
25 | 3700 nM | O=C(N[C@@H](Cc1ccc(Cl)cc1)C(=O)O)c1csc(-c2ccc(C(F)(F)F)cc2)n1 [Example 107, (S)-3-(4-Chloro-phenyl)-2-{[2-(4-trifluoromethyl-phenyl)-thiazole-4-carbonyl]-amino}-propionic acid]
26 | 121 nM | Cc1ccccc1[C@H](CC(=O)O)NC(=O)c1csc(-c2ccc(Cl)cc2)n1 [Example 109, (S)-3-{[2-(4-Chloro-phenyl)-thiazole-4-carbonyl]-amino}-3-o-tolyl-propionic acid]
27 | 3880 nM | O=C(O)C[C@H](NC(=O)c1csc(-c2ccc(Cl)cc2)n1)c1ccccc1 [Example 110, (S)-3-{[2-(4-Chloro-phenyl)-thiazole-4-carbonyl]-amino}-3-phenyl-propionic acid]
28 | 106 nM | Cc1ccccc1-c1nc(C(=O)N[C@@H](CC(=O)O)c2ccccc2C)cs1 [Example 111, (S)-3-o-Tolyl-3-[(2-o-tolyl-thiazole-4-carbonyl)-amino]-propionic acid]
29 | 1310 nM | Cc1ccccc1[C@H](CC(=O)O)NC(=O)c1csc(-c2ccc(C(F)(F)F)cc2)n1 [Example 112, (S)-3-o-Tolyl-3-{[2-(4-trifluoromethyl-phenyl)-thiazole-4-carbonyl]-amino}-propionic acid]
